Consider three compounds from patent publication US10227347B2, “Purinyl-N-hydroxyl pyrimidine formamide derivative, preparation methods and uses thereof” (Guizhou Bailing Group Pharmaceutical CO., LTD., priority 2015, dated 2019).

pEC50, pIC50: −log10 of the molar value. Read-outs that look alike come from different tables or passages of the source. A value given as a limit tells only on which side of the number the result lay.

For one series, the target named is T1, PI3Kα (Homo sapiens, UniProt P42336).
T1 construct: purchased Invitrogen PV4788
T1 sequence (P42336 whole entry, species assumed): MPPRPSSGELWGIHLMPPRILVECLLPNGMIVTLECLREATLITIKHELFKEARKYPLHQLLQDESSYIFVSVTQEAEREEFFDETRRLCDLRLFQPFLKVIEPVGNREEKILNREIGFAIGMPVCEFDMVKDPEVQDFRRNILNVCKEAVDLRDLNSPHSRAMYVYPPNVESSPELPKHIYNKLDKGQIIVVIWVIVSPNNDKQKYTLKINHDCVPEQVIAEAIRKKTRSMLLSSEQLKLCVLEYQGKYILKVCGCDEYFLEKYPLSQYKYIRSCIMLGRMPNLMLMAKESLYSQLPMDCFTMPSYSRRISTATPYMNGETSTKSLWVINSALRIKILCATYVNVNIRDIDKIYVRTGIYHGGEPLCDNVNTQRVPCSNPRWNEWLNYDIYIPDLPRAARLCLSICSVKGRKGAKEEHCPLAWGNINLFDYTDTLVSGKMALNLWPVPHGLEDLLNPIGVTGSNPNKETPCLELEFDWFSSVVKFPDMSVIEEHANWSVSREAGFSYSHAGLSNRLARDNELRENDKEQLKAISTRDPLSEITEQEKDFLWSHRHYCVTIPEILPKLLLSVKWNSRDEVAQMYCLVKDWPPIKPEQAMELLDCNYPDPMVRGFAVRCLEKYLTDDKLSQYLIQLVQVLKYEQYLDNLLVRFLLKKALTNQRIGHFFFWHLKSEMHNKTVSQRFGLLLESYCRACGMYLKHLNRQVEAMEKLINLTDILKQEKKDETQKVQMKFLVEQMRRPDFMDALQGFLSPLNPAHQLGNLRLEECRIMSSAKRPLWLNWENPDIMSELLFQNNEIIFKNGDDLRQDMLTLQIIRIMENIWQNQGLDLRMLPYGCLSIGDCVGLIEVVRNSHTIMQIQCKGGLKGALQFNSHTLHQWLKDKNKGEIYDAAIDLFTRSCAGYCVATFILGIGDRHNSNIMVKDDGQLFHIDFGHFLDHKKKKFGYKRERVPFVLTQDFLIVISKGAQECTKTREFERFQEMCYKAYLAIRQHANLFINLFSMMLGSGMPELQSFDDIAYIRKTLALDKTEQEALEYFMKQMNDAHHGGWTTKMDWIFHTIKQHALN
T1 sequence (P27986 whole entry partner, species assumed): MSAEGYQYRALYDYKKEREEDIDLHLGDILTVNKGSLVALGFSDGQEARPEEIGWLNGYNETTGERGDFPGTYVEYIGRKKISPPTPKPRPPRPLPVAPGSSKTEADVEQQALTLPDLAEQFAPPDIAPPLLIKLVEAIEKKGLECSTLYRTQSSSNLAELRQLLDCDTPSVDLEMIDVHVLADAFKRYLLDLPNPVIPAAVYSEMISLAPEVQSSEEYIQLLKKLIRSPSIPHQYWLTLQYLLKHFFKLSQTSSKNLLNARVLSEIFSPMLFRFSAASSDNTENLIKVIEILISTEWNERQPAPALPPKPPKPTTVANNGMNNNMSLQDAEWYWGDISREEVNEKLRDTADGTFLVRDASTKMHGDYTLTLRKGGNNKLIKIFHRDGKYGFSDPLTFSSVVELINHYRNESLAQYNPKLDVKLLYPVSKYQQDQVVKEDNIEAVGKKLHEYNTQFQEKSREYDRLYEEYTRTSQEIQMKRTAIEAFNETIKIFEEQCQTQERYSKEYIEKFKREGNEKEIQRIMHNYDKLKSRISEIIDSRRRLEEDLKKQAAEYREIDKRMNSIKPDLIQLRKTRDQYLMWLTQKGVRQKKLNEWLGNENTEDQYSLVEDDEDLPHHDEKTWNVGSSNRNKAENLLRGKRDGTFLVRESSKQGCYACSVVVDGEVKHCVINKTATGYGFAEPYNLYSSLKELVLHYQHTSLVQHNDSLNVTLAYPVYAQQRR
Put plainly: PI3Kα activity inhibition (Kinase-Glo). Particulars: read-out: PI3Kα IC50. The format is biochemical. The method, boiled down:
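Kinase-Glo luminescence read-out of remaining ATP after PI3K reaction with PIP2 and ATP substrates in 50 mM HEPES pH 7.5, 3 mM MgCl2, 1 mM EGTA, 100 mM NaCl, 0.03% CHAPS, 2 mM DTT. Incubated at ambient temperature, 1 h for PI3Kα, 2 h for PI3Kδ. IC50 from four-parameter fit of % inhibition versus concentration.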
(In general: In Kinase-Glo more light means more ATP remaining.)

Another series has as its target T2, PI3Kβ (Homo sapiens, UniProt P42338).
T2 construct: purchased Millipore 14-603-K
Put plainly: PI3Kβ activity inhibition (ADP-Glo). In kind it is biochemical. Conditions: Table 4, graded. Here is the method: (§1) Detecting the inhibition capability of the compound to PI3Kβ and PI3Kγ activities with ADP-Glo (purchased from Promege Company; Catalog No.: v9102/3). […] The reaction system also comprises substrates as PIP2 and ATP. The reaction buffer system comprises 50 mM HEPES, 3 mM MgCl2, 1 mM EGTA, 100 mM NaCl, 0.03% CHAPS and 2 mM DTT. The pH value of the reaction buffer is 7.5. […] Mixing the system evenly for incubation under ambient temperature for 1 h; getting a new 384 well plate and transferring 5 μL reaction liquid from the each well of original 384 well plate to the corresponding wells of the new 384 well plate; adding 5 μL ADP-Glo which has been preheated to ambient temperature into each new reaction well to terminate the reaction; oscillating it slowly in dark place for 40 min's incubation after it is mixed evenly; adding 10 μL testing liquid in each reaction well, oscillating it for 1 min to mix evenly and incubating it for 1 h, then measuring the fluorescence intensity with a microplate reader and analyzing the result data with the software GraphPad Prism.
(§2) Calculating the value of IC50 as per the formula: Y=background data+(top data−background data)/(1+10^((Log IC50−X)*rate of curve))
(§3) Where, Y refers to the inhibition ratio (%) and X refers to the compound concentration.
On the technique in general: In ADP-Glo the light output rises with the ADP produced.

A further series deals with T3, PI3Kδ (Homo sapiens, UniProt O00329).
T3 construct: purchased Millipore 14-604-K
T3 sequence (O00329 whole entry): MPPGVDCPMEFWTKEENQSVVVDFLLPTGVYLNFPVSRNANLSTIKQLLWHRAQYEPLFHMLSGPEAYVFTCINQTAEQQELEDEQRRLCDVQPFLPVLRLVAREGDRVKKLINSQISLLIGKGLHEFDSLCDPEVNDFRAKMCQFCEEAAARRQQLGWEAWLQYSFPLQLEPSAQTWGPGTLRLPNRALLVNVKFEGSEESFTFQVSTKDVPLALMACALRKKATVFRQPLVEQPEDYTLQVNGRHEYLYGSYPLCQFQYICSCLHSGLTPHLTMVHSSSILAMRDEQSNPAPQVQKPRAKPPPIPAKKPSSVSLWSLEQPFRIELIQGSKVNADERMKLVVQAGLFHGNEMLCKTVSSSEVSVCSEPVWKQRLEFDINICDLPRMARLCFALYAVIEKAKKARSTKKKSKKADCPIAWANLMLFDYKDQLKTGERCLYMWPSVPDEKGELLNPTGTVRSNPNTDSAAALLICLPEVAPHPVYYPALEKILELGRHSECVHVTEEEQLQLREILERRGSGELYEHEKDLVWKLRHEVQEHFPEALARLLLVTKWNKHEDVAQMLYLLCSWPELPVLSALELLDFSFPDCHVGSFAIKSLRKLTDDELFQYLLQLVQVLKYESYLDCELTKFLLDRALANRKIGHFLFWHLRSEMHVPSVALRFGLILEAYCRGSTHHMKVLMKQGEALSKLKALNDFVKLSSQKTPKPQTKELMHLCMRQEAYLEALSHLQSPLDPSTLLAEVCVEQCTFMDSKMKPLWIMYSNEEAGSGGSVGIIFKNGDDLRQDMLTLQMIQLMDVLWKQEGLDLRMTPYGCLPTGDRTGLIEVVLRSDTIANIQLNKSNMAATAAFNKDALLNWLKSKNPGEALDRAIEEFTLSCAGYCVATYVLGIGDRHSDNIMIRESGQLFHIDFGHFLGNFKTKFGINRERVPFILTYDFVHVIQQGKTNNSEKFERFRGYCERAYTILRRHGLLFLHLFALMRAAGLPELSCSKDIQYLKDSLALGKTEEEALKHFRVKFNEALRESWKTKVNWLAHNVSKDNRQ
T3 sequence (P27986 whole entry partner): as the sequence (P27986 whole entry partner, species assumed) above
The series can be described thus: PI3Kδ activity inhibition (Kinase-Glo). The format is biochemical. Particulars: Table 4, graded. As for the experimental part: Detecting the inhibition capability of the compound to PI3Kα and PI3Kδ activities with Kinase-Glo (purchased from Promege Company; Catalog No.: V3771). […] The reaction system also comprises substrates as PIP2 (4, 5-diphosphoinositide, purchased from Life Technologies Company) and ATP (triphosadenine, purchased from Sigma Company). The reaction buffer system comprises 50 mM HEPES (4-hydroxyethylpiperazine ethane sulfonic acid), 3 mM MgCl2, 1 mM EGTA (ethylene glycol bis(2-amino ethylether)quadrol), 100 mM NaCl, 0.03% CHAPS (3-[3-(cholamidopropyl)dimethylamino]-1-propanesulfonic acid), 2 mM DTT (dithiothreitol). The pH value of the reaction buffer is 7.5. […] Mixing the system evenly for incubation under ambient temperature (for 1 h in PI3Kα test and for 2 h in PI3Kδ test). After incubation, adding 10 μL Kinase-Glo which has been preheated to ambient temperature into each reaction well to terminate the reaction; shaking it in dark place for 15 min after it is mixed evenly, then measuring the fluorescence intensity with a microplate reader and analyzing the result data with the software GraphPad Prism.
as §2, §3

The target of series [1] is T4, PI3Kγ (Homo sapiens, UniProt P48736).
T4 construct: purchased Invitrogen PR8641C
T4 sequence (P48736 whole entry): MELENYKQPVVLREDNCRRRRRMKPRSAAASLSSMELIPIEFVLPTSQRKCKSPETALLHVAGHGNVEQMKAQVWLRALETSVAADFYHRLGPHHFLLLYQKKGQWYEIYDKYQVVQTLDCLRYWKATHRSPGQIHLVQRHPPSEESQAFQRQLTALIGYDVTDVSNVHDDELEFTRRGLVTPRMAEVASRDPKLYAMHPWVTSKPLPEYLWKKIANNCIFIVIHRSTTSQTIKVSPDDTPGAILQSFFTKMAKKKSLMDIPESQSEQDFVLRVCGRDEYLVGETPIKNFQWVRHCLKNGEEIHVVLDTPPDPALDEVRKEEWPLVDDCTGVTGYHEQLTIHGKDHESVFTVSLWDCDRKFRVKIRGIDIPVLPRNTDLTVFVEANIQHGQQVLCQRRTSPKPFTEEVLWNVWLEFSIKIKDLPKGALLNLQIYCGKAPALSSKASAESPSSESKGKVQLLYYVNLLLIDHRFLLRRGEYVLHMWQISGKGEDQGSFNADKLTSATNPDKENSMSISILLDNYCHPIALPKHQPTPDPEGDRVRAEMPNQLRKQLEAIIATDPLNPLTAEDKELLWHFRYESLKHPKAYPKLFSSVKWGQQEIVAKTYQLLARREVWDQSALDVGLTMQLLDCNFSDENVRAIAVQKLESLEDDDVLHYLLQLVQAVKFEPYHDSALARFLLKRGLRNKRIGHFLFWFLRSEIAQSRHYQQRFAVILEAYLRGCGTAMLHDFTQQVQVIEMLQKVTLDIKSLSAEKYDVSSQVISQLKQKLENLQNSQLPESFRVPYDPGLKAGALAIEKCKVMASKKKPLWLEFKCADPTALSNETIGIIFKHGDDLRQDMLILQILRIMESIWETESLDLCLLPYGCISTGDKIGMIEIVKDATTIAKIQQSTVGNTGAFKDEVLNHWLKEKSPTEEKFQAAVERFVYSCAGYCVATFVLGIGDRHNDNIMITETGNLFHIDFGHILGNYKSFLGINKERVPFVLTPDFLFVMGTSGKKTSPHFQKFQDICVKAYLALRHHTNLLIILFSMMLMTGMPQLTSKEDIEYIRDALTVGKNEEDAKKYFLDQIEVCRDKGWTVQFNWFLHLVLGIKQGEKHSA
Put plainly: PI3Kγ activity inhibition (ADP-Glo). The format is biochemical. Particulars: Table 4, graded. Here is the method:
as §1, §2, §3

Series [2] concerns MV4-11 cells (acute myeloid leukemia). Put plainly: Cell proliferation inhibition, MV4-11 (cck-8). The format is cell-based. Particulars: Homo sapiens, 96 h incubation, read-out: Proliferation IC50, Acute myeloid leukemia MV4-11. In outline: (§4)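 Cells seeded at 2000-3000/well; adherent lines dosed after attachment, then 96 h incubation with compound. Viability read by MTT for solid-tumour lines (HCT116, A2780s) and CCK-8 for MV4-11; IC50 from four-parameter logistic fit of inhibition ratio versus concentration.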

Series [3] concerns hct116 cells (colon cancer). Put plainly: Cell proliferation inhibition, hct116 (MTT). In kind it is cell-based. Conditions: Homo sapiens, HCT-116; 96 h incubation; read-out: Proliferation IC50, Colon cancer hct116. The method, boiled down:
as §4

For series [4], the system named is A2780s cells (ovarian cancer). The series can be described thus: Cell proliferation inhibition, A2780s (MTT). In kind it is cell-based. Particulars: Homo sapiens, 96 h incubation, read-out: Proliferation IC50, Ovarian cancer A2780s. The method, boiled down:
as §4

In series [5] the test system is acetylated Ac-α-tubulin in A2780s cells. The series can be described thus: Induction of α-tubulin acetylation in A2780s cells (cytoblot). The format is cell-based. Particulars: Homo sapiens, 6 h treatment, read-out: Ac-Tub EC50. As for the experimental part: (§5) Specific operation: After the treatment, washing each well once with 50-100 μl of cold TBS buffer [with the composition as 20 mM Tris (trismetyl aminomethane), pH7.5] and fixing it with 100 μL of 4% pre-cooled paraformaldehyde at 4° C. for 1 h; after paraformaldehyde is washed off, adding 50 μL of pre-cooled methyl alcohol in each well and evenly spreading at 4° C. for 5 min; after methyl alcohol is washed off, washing it once with the TBS buffer containing 3% skim milk powder and adding 50 μL of antibody fluid, oscillating it slightly at 4° C. and incubating overnight. For determination of Ac—H3, the antibody fluid is prepared by diluting Ac—H3 antibody and horseradish peroxide coupled secondary antibody to a same system with the TBS buffer containing 3% skim milk powder (Ac—H3 antibody is purchased from Santa Cruz Company and diluted at a ratio of 1:100; horseradish peroxide coupled secondary antibody is purchased from Jackson Company and diluted at a ratio of 1:2000); for determination of acetylated Ac-α-tubulin, the antibody fluid is prepared by diluting Ac-α-tubulin antibody and horseradish peroxide coupled secondary antibody to a same system with the TBS buffer containing 3% skim milk powder (Ac-α-tubulin antibody is purchased from Santa Cruz Company and diluted at a ratio of 1:100; horseradish peroxide coupled secondary antibody is purchased from Jackson Company and diluted at a ratio of 1:2000).
(§6) Calculating the value of IC50 as per the formula: Y=background data+(top data−background data)/(1+10^((Log EC50−X)*rate of curve)) Where, Y refers to the activating rate (%) and X refers to the compound concentration.

The test system of series [6] is acetylated histone H3 (Ac-H3) in A2780s cells. The series can be described thus: Induction of histone H3 acetylation in A2780s cells (cytoblot). Conditions: Homo sapiens, 6 h treatment. The format is cell-based. As for the experimental part:
as §5, §6

The test system of series [7] is MV4-11 subcutaneous tumor. Conditions: once per two days, 22 days. The source says:
During drug administration, measuring the weight and gross tumor volume of the mice per 2 days and keeping a record. The calculation formula is as V=π/6×A^2×B, where, where, V=gross tumor volume (mm^3), A=tumor width (mm) and B=tumor length (mm). Observing and keeping a record for the survival condition of the tested animals. After drug discontinuance, killing the mice through cervical dislocation and peeling off their tumors as per the operation specification of animal experiment. Evaluating the inhibition capability of the compounds to tumor activities by calculating the tumor inhibitory rate with the formula as: tumor inhibitory rate=(1−tumor weight of treatment group/tumor weight of control group)×100%. Analyzing and comparing the difference between each treatment group and control group with the method of t-test. The grading of significance level of difference is: ***, P<0.001; **, P<0.01; *, P<0.05; no statistical significance (ns), P>0.05.

Series [8] relates to U266 cells (multiple myeloma). Put plainly: Proliferation inhibition, U266 (cck-8). The format is cell-based. Particulars: Homo sapiens, U-266; 96 h incubation. The source says:
(§7) Calculating the value of IC50 as per the formula: Y=background data+(top data−background data)/(1+10^((Log IC50−X)*rate of curve)). Where, Y refers to the inhibition ratio (%) and X refers to the compound concentration.

Series [9] deals with RPMI-8226 cells (multiple myeloma). Put plainly: Proliferation inhibition, RPMI-8226 (cck-8). In kind it is cell-based. Conditions: Homo sapiens, 96 h incubation.
Excerpt: as §7

The test system of series [10] is MM1S cells (multiple myeloma). Put plainly: Proliferation inhibition, MM1S (cck-8). In kind it is cell-based. Particulars: Homo sapiens, MM1.S; 96 h incubation.
Excerpt: as §7

For series [11], the system named is OCI-LY1 cells (B-cell lymphoma). Put plainly: Proliferation inhibition, OCI-LY1 (cck-8). The format is cell-based. Particulars: Homo sapiens, 96 h incubation.
Excerpt: as §7

Series [12] relates to HBL-1 cells (B-cell lymphoma). The series can be described thus: Proliferation inhibition, HBL-1 (cck-8). In kind it is cell-based. Conditions: Homo sapiens, HBL1; 96 h incubation.
Excerpt: as §7

Series [13] relates to Ramos cells (B-cell lymphoma). Put plainly: Proliferation inhibition, Ramos (cck-8). The format is cell-based. Particulars: Homo sapiens, 96 h incubation.
Excerpt: as §7

Series [14] has as its system SUDHL-4 cells (B-cell lymphoma). The series can be described thus: Proliferation inhibition, SUDHL-4 (cck-8). The format is cell-based. Particulars: Homo sapiens, SU-DHL-4; 96 h incubation.
Excerpt: as §7

In series [15] the test system is PI3Kγ. Conditions: read-out: inhibition value to activity of PI3Kγ; literature [1]; cited from earlier work.
In series [16] the test system is human colon cancer hct116 subcutaneous tumor. Put plainly: Subcutaneous tumor model, human colon cancer hct116. Particulars: 50 mg/kg, once per 2 days, intraperitoneal.

As a reminder, the pEC50 is the EC50 on a negative log10 scale, so that one unit is a factor of ten.

T2 sequence (P42338 whole entry, species assumed): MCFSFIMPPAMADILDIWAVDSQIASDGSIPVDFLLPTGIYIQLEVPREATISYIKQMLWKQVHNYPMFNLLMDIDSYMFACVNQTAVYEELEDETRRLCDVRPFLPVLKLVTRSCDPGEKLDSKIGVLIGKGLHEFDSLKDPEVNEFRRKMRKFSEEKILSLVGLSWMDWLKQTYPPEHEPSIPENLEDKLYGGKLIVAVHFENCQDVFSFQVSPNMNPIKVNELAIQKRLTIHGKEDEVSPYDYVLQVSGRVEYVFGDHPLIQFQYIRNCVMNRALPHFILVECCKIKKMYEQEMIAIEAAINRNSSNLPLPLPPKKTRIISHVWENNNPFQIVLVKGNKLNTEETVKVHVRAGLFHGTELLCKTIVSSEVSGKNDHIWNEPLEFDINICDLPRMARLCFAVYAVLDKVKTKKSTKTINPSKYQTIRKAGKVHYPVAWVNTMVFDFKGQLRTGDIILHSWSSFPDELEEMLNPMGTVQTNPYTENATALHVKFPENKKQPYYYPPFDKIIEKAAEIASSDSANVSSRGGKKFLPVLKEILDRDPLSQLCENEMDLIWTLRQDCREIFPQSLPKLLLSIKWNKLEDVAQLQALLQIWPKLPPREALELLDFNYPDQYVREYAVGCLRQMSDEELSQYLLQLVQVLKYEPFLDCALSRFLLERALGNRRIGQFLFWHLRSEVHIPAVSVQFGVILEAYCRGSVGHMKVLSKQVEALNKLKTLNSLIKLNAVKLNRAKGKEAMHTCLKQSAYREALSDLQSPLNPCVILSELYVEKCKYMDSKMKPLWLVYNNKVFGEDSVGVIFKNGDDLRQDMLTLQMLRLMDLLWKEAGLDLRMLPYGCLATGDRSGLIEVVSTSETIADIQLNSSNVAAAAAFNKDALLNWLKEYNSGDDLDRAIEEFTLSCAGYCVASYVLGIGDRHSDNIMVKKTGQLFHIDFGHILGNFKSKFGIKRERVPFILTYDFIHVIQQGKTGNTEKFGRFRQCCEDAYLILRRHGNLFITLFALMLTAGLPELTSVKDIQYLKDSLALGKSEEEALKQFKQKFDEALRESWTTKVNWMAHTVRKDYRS
T2 sequence (P27986 whole entry partner, species assumed): as the sequence (P27986 whole entry partner, species assumed) above

For the compound `CN(Cc1nc2c(N3CCOCC3)nc(-c3ccncc3)nc2n1C)c1ncc(C(=O)NO)cn1` [CLJ-8, 2-(((2-(4-pyridyl)-9-methyl-6-morpholine-9H-purine-8-yl))methyl(methyl)amino)-N-hydroxyl pyrimidine-5-formamide], the pIC50 on PI3Kα (Table 1, graded) is 5.00 to 6.00; at PI3Kα (Table 4, graded), 5.00 to 6.00; against PI3Kβ, less than 5.00; against PI3Kδ it was less than 5.00; against PI3Kγ [1] it was less than 5.00; in series [2], 8.00 to 10.00. Besides, the pIC50 in series [3] was 7.00 to 8.00; in series [4], 8.00 to 10.00; in series [8], 8.00 to 9.00; in [9], 8.00 to 9.00; in series [10], 9.00 to 10.00; in series [11], 8.00 to 9.00. Moreover, the pIC50 in [12] is 8.00 to 9.00; in series [13], 9.00 to 10.00; in series [14], 8.00 to 9.00. Moreover, the pEC50 in series [5] and in series [6] was 6.70 to 7.00 in each case. Also, in series [7] (10 mg/kg i.v.), the “Final survival condition (survived individuals/total individuals)” value is given as 5/6.

As for `COc1ccc(-c2nc(N3CCOCC3)c3sc(CN(C)c4ncc(C(=O)NO)cn4)cc3n2)cn1` [CUDC-907], the pIC50 in the series on PI3Kγ [15] is 7.41.

For the compound `O=C(CCCCCCC(=O)Nc1ccccc1)NO` [SAHA, vorinostat, reference compound], in series [7] (50 mg/kg i.p.), the “Final survival condition (survived individuals/total individuals)” value is 6/6. The Death in series [16] is listed as 0/6.
